Data set [1] relates to M. smegmatis MC^2 155.
In data set [2] the test system is E. coli BW25113 membrane. Briefly: Membrane depolarization assay. The format is cell-based, Escherichia coli. The note with it: DiOC2(3) 30 μM, 60 min, room temperature, fluorescence. The method, then:
Mid-exponential phase E. coli BW25113 culture (OD600 0.3–0.5) was mixed with […] (DiOC2(3), ThermoFisher Scienti c) dye at a nal concentration of 30 μM and 190 μL of cells were placed into wells of a 96-well black plate. A volume of 10 μl of test compounds or DMSO was added, mixed by pipetting, and fluorescence was measured for 60 min at room temperature using a Synergy Microplate Reader (Biotek) (lex/lem: 450/670 nm). Carbonyl cyanide m-chlorophenyl hydrazone (CCCP) served as a positive control.

Data set [3] concerns E. coli BW25113. In words: Selection of spontaneous resistant mutants. The format is cell-based, Escherichia coli. The note with it: ~10^9 cfu on MOPS minimal agar, 37°C, 24–48 h.
Data set [4] relates to B. subtilis 168. Briefly: Selection of spontaneous resistant mutants. Type of data set: cell-based, Bacillus subtilis. The note with it: ~10^9 cfu on Mueller-Hinton agar, 37°C, 24–48 h.
The subject of data set [5] is human erythrocytes. In words: Haemolysis.
For data set [6], the system named is E coli BW25113 ΔbamB. The note with it: 18–22 h.
Data set [7] concerns T. thermophilus 70S ribosome. In words: X-ray structure of ribosome complex. The format is binding, Thermus thermophilus.
Data set [8] relates to Candida albicans ATCC 90028.
Data set [9] deals with E. coli BW25113 membrane. In words: Propidium iodide uptake assay. Type of data set: cell-based, Escherichia coli. The note with it: propidium iodide 4 μM, 30 min, RT, fluorescence. How it is done: E. coli BW25113 cells were prepared as described above and mixed with propidium iodide (final concentration 4 μM). Cell suspension (190 μL) was then placed into wells of a 96-well black-wall plate and supplemented with 10 μL of compounds at various concentrations. Fluorescence (lex/lem: 535/617 nm) was monitored for 30 min at RT in a Synergy Microplate Reader (Biotek). Colistin was used as a positive control.

Data set [10] concerns ribosomes (E. coli PURExpress). In words: Toeprinting assay. The note with it: 1, 5 or 10 μM LAR, RST1 template. Type of data set: biochemical, Escherichia coli. How it is done: Toe-printing analysis was carried out in the E. coli in vitro transcription-translation system assembled from the purified components (PURExpress, NEB) as described previously. Reactions either contained no antibiotic or were supplemented with 50 μM retapamulin or varying concentrations of LAR (1, 5, or 10 μM). The model RST1 template encoding a 21-aa long peptide containing all 20 proteinogenic amino acids[22] was generated by PCR using the primers RST1_F and FIRST1_R (Supplementary Table 1).

Data set [11] has as its system E. coli strain CA244 lacZ C1456T. In words: Miscoding assay (lacZ premature stop codon readthrough). The note with it: MOPS agar, X-gal 80 μg/ml, IPTG 250 μM; 60.7 μg LAR spotted, ~18 h, 37°C.
Data set [12] deals with strains with deletions of the individual identified genes. Briefly: MIC in deletion strains of identified ETC/respiration genes. Type of data set: cell-based. The note with it: deletions of genes related to ETC and respiration. The method, then: (§1) MICs were determined using broth microdilution method in cation-adjusted Mueller-Hinton Broth (MHBII, BD Difco) following standard procedures unless stated otherwise. Mycobacteria susceptibility was tested in Middlebrook 7H9 medium supplemented with 10% OADC Enrichment (oleic acid, bovine albumin, dextrose, and catalase) (BD Difco). The compounds (2 to 4 μl) were mixed with diluted cultures (5–7 × 10^5 cfu/mL) in MHB (196 to 198 μL) in 96-well round-bottom plates, and 2-fold serial dilutions were made. Plates were incubated at 37°C for 18–22 h, and OD600 readings were taken on Synergy Microplate Reader (Biotek). MIC was determined to be the lowest concentration of antibiotics with no visible growth. For Mycobacterial cultures, the plates were read after two to three days. Susceptibility was also assessed in MOPS minimal medium with 0.4% glucose (M2106 Teknova) and RPMI-1640 medium. Serum effects were tested in MHB with 10% or 50% fetal bovine serum (Invitrogen) or human serum (Heat Inactivated, from human male AB plasma; Sigma-Aldrich). For anaerobic conditions, E. coli was incubated in BD GasPak™ EZ pouch systems. To adjust the pH of the media, 1M NaOH or 1N HCl was used.

Data set [13] deals with E. coli. In words: MIC under anaerobic conditions. The format is cell-based, Escherichia coli. The note with it: anaerobic vs aerobic. How it is done: as §1

Here are results for one compound from paper PMC11451635, “A Broad Spectrum Lasso Peptide Antibiotic Targeting the Bacterial Ribosome” (Research Square, 2024).

SMILES strings stand for the structures. ≈ marks a conversion by molar mass, not a printed value. Entries after “also recorded” stand apart in the source; their conditions may differ. Read-outs that look alike come from different tables or passages of the source. Where a SMILES comes first, the peptide text is derived from it. Bridges are numbered along the chain shown (N, C = ends).

As a reminder, the MIC is the smallest concentration in the dilution series that meets the test's criterion for growth inhibition. Turning to `CC(C)[C@H](NC(=O)CNC(=O)[C@H](CCCNC(=N)N)NC(=O)CNC(=O)[C@H](Cc1ccccc1)NC(=O)[C@H](CCCCN)NC(=O)CNC(=O)[C@@H]1CC(=O)N[C@@H](CO)C(=O)N[C@@H](CCCCN)C(=O)N[C@@H](CCCCN)C(=O)N[C@@H](CO)C(=O)N[C@@H](CCCCN)C(=O)N2CCC[C@H]2C(=O)NCC(=O)N1)C(=O)N[C@@H](CCCCN)C(=O)N[C@@H](CCCNC(=N)N)C(=O)NCC(=O)O` [LAR, lariocidin] (SKKSKPGDGKFGRGVKRG-OH; lactam N-8), the MIC in data set [1] is 1 to 2 µg/mL; in [6] (MHB, 37°C) it was 32 µg/mL (≈ 17.1 µM); in data set [6] (RPMI-1640, 37°C) it was 1 µg/mL (≈ 0.534 µM); in data set [8] (column MHB, method: yeast nitrogen base (YNB) without amino acids), greater than 256 µg/mL. Moreover, the “MIC (text)” value in [1] is 1 to 2 µg/mL. For the same compound, the Membrane depolarization result in data set [2] is on record as “did not permeabilize or depolarize the bacterial membrane”. Moreover, the “Frequency of resistant mutants” value in data set [3] and in data set [4] was ~ 10^−8 each time. Moreover, in [5], the “Hemolytic activity” value is reported as “did not display hemolytic activity”. In data set [5] (500 μg/ml, human erythrocytes in PBS pH 7.4, 1 h, 37°C, 540 nm, Triton X-100 = 100%), this compound displayed a Haemolysis of less than 1%. For the same compound, in [7] (70S ribosome with mRNA and tRNAs, 250 μM antibiotic), the “Ribosome binding (X-ray structure)” value was “binds to the small ribosomal subunit at a distinct site adjacent to the decoding center”. Besides, the “Ribosome binding without mRNA and tRNAs” value in data set [7] (Tth ribosome lacking mRNA and tRNAs (protein Y complex), 2.6 Å) is recorded as “the presence of A-site tRNA is not essential for LAR binding to the ribosome”. In addition, the Antifungal action result in data set [8] is recorded as “no antifungal action”. Also, the Membrane permeabilization result in data set [9] is “did not permeabilize”. The “Ribosome stalling (toeprint)” value in data set [10] is given as “predominantly arrested at the start codon of a model mRNA but also stalled at internal codons of the ORF”. Moreover, the “Miscoding / premature stop codon readthrough” value in data set [11] is listed as “induces miscoding; also recorded: induces premature stop codon readthrough”. Also, in [12], the “Change in MIC in deletion strains” value is on record as “no significant changes in MIC”. In data set [13], the “Increase in MIC under anaerobic conditions” value is 4-to-8 fold.
